Results on one molecule are retold here after patent publication US20250352448A1, “COMPOSITION FOR IMPROVING SKIN CONDITIONS” (AJINOMOTO CO., INC., priority 2022, published 2025).

SMILES strings stand for the structures.

In the assay the test system is caspase-14. The experiment in a line: caspase-14 production in amino acid-depleted epidermal keratinocytes (ELISA). In kind it is cell-based. As to conditions: human skin-simulating medium 2, cultured 4 days. An excerpt: Culture media ([…] medium) used for cell culture contain amino acids necessary for cells to survive and grow. […] human skin-simulating medium 2: The essential amino acids in D-MEM (Life Technologies 21068-028) were changed to the concentrations shown in Table 10, human skin-simulating medium 2. […] The next day, the medium was replaced with the medium of evaluation condition (5)-(7). • Evaluation condition (5): Human skin-simulating medium 2 (hereinafter the sample evaluated under evaluation condition (5) is referred to as “Control 3”). • Evaluation condition (6): Medium obtained by adding His (final concentration 0.2 mM), Leu (final concentration 0.8 mM), Val (final concentration 0.8 mM) to human skin-simulating medium 2 (hereinafter the sample evaluated under evaluation condition (6) is referred to as “Example 3”). • Evaluation condition (7): Medium obtained by adding His (final concentration 0.2 mM) to human skin-simulating medium 2 (hereinafter the sample evaluated under evaluation condition (7) is referred to as “Example 4”). […] The protein extract of the above-mentioned 4 was diluted with water, and the protein was quantified using Micro BCA Protein Assay Kit (Thermo Fisher Scientific 23235). • 6. The amount of caspase-14 determined in the above-mentioned 4 was normalized by the amount of protein determined in the above-mentioned 5. • 7. […]

Regarding `N[C@@H](Cc1c[nH]cn1)C(=O)O` [His, histidine], the “amount of caspase-14 (normalized by protein amount, Control 3 as 100%)” value (Experimental Example 2-3, FIG. 3, final His 0.2, Leu 0.8, Val 0.8 mM or His 0.2 mM alone) is given as “remarkably increased”. Besides, under “Experimental Example 3-3-1, FIG. 6A, final His 0.2, Leu 0.8, Val 0.8 mM, Val 0.8 mM alone or His 0.2 mM alone”, the “amount of caspase-14 (normalized by protein amount, Control 7 as 100%)” value is “remarkably increased”.
